Where two headings read alike, the source gives them in different places.
Experiments:
[1] = Caco2 protocol: transport through Caco-2 cell monolayers (Papp); format: in vitro ADME; conditions: human
Experimental: (§1) To further evaluate potential behavior in human subjects, the transport through Caco-2 cells was evaluated for the putative prodrugs.
(§2) Powders of Krebs-Henseleit buffer, calcium chloride dihydrate, and sodium bicarbonate were purchased from Sigma (St. Louis, Mo.). Caco-2 cells (Passage˜100) were obtained from Roche Basel. Dulbecco's Modified Eagle's Medium (DMEM)/high medium, 4-(2-hydroxyethyl)-1-piperazineethane-sulfonic acid (HEPES), and bovine serum were obtained from JRH Bioscience (Lenexa, Kans.). MEM nonessential amino acids, L-glutamine, penicillin, and streptomycin were obtained from GIBCO Labs, Life Tech. LLC (Grand Island, N.Y.). Snapwell cell culture inserts (6.5 mm diameter, 1.12 cm^2, 0.4 μm pore size) were obtained from Costar (Cambridge, Mass.).
(§3) Culture media consisted of DMEM/high medium supplemented with 5% bovine serum, 25 mM HEPES, 1% MEM non-essential amino acids, 1% L-glutamine, 100 U/mL penicillin, and 100 μg/mL streptomycin. Cultures were passaged every week at a split ratio of 1-3. For the permeability studies, Caco-2 cells at passage number 110-120 were plated at a density of 400,000 cells/cm^2 on Transwell polycarbonate filters in Snapwell inserts and allowed to culture for 7 days prior to use.
(§4) Krebs-Henseleit bicarbonate buffer containing 10 mM glucose and 2.5 mM CaCl2 adjusted to pH 6.5 and 7.4 were prepared per packet instructions. Powder salts were quantitatively dissolved in about 90% of required volume with Millipore water. Calcium chloride dihydrate and sodium bicarbonate were added before pH adjustment with 1N HCl or 1N NaOH. Additional Millipore water was added to bring the solution to final volume. The solution was sterilized by filtration using membrane with a porosity of 0.22 microns and stored in the refrigerator ([…]) until use.
(§5) Snapwells inserts, containing caco-2 monolayers were rinsed in 37° C. equilibrated Krebs-Henseleit pH 7.4 buffer.
(§6) The cell insert was utilized as the diffusion chamber. The pH of the Krebs-Henseleit buffer in the apical and basolateral chambers was 6.5 and 7.4, respectively, and the initial concentration of substrate in apical side was 100 μM. […] The experiments were initiated when the cell inserts with 100 μM compounds in pH 6.5 Krebs-Henseleit buffer were transferred into a new plate with pre-equilibrated buffer in basolateral chamber. Samples from donor side at 0 min, and both donor and receiver sides at 30 min were collected for analysis.
(§7) Lucifer Yellow was used to assess the performance of the diffusion system. […] After 60 min of incubation, 250 μL was removed from the basal chamber and assayed.
(§8) The Papp was calculated using the following formula:
(§9) [formula] Where V is the volume (cm^3) of the receiver solution, A is the surface area (cm^2) of the Snapwell insert, Co is the initial concentration (nM), and dC/dt is the change in concentration in the receiver chamber over time, i.e., the slope (nM/min) of the concentration in the receiver chamber vs. time. Concentrations at each sampling time point were corrected to account for the aliquots removed or transferring of donor inserts to new plates depending on the experiment.

Caco-2 cells = assay: Caco2 protocol: transport through Caco-2 cell monolayers (Papp); format: in vitro ADME; conditions: Caco-2 cultured 7 days; apical pH 6.5, basolateral pH 7.4; 100 μM apical; 30 min
Experimental: as §1, §2, §3, §4, §5, §6, §7, §8, §9

[2] = Determination of pharmacokinetic parameters in rats (oral gavage, plasma LC/MS/MS); format: in vivo, rat; conditions: AUC(cyt) of parent cytidine nucleoside in plasma, dose equivalent to 10 mg/kg, male Hanover-Wistar rats
Experimental: Determination of Pharmacokinetic Parameters in Rats Intact male IGS Wistar Han Rats Crl:WI(GLx/BRL/Han)IGS BR (Hanover-Wistar) rats weighing 200-250 g were used. Groups of three rats were used for each dose level of an experimental compound. Animals were allowed normal access to chow and water throughout the experiment. The test substance was formulated as an aqueous suspension containing Captex 355EP, Capmul MCM, EtOH, and propylene glycol (30:20:20:30) at a dose equivalent to 10 mg/kg of the I-5 and was administered orally by gavage. A blood sample (0.3 mL) was collected from the treated rats at, 0.25, 0.5, 1, 3, 5, and 8 h from a jugular cannula and at 24 h by cardiac puncture. Potassium oxalate/NaF were added to the samples which were stored on ice during sampling procedure. The samples were spun in a refrigerated centrifuge at […] as soon as possible and the plasma samples were stored in a −80° C. freezer until analysis. Aliquots of plasma (0.05 mL) were mixed with 0.1 mL of acetonitrile. Internal standard (0.05 mL in water) and 0.02 mL blank solvent were added. […] Sample Analysis—Prodrugs were analyzed using high-performance liquid chromatography with tandem mass-spectrometry (HPLC/MS/MS). […]

HCV = conditions: monotherapy; cited from earlier work

Row | Compound | Papp A→B at 30 min, 100 μM ([1]; Caco-2) [×10⁻⁶ cm/s] | melting point [°C] | other results
1 | CC(C)C(N)C(=O)O[C@@H]1[C@@H](CO)O[C@@H](n2ccc(N)nc2=O)[C@]1(C)O (stereo partly drawn) [I-5, reference compound] | – | – | Papp A→B at 30 min, 100 μM ([1]; Caco-2 cultured 7 days, apical pH 6.5, basolateral pH 7.4, 100 μM apical, 30 min, read-out: Caco2 (7 day)): 0.12 ×10⁻⁶ cm/s
2 | CCCCC(=O)OC[C@H]1O[C@@H](n2ccc(N)nc2=O)[C@](C)(O)[C@@H]1OC(=O)CCCC.Cl [I-3, Pentanoic Acid (2R,3R,4R,5R)-5-(4-amino-2-oxo-2H-pyrimidin-1-yl)-4-hydroxy-4-methyl-3-pentanoyloxy-tetrahydro-furan-2-ylmethyl ester; Hydrochloride Salt] | 4.21 | 158.2 to 159.2 | –
3 | CC(C)C(=O)OC[C@H]1O[C@@H](n2ccc(N)nc2=O)[C@](C)(O)[C@@H]1OC(=O)C(C)C.Cl [I-2, Iso-butyric Acid (2R,3R,4R,5R)-5-(4-amino-2-oxo-2H-pyrimidin-1-yl)-4-hydroxy-3-isobutyryloxy-4-methyl-tetrahydro-furan-2-ylmethyl ester; Hydrochloride Salt] | – | – | Caco2 (7 day) (Caco-2 cells): 1.06 cm/sec × 10^−6; Rat AUC [2]: 5600 ± 300 ng·h/mL
4 | NC(=O)c1ncn([C@@H]2O[C@H](CO)[C@@H](O)[C@H]2O)n1 [ribavirin, 1-((2R,3R,4S,5R)-3,4-Dihydroxy-5-hydroxymethyl-tetrahydro-furan-2-yl)-1H-[1,2,4]triazole-3-carboxylic acid amide] | – | – | patients with serum amino transferase levels reduced to normal (HCV): 40%

Continued, in another order:

Row | Papp A→B at 30 min, 100 μM ([1]; Caco-2) [×10⁻⁶ cm/s] | melting point [°C] | Compound | other results
5 | 0.76 | – | C[C@@]1(O)[C@H](O)[C@@H](CO)O[C@H]1n1ccc(N)nc1=O [I-4, 4-amino-1-((2R,3R,4R,5R)-3,4-dihydroxy-5-hydroxymethyl-3-methyl-tetrahydro-furan-2-yl)-1H-pyrimidin-2-one, reference compound] | –
6 | 0.11 | 164.5 to 167 | CCC(=O)OC[C@H]1O[C@@H](n2ccc(N)nc2=O)[C@](C)(O)[C@@H]1OC(=O)CC.Cl [I-1, Propionic Acid (2R,3R,4R,5R)-5-(4-amino-2-oxo-2H-pyrimidin-1-yl)-4-hydroxy-4-methyl-3-propionyloxy-tetrahydro-furan-2-ylmethyl ester; Hydrochloride Salt] | –
